One test concerns the target PBPLma. Also on record: method as in PMID 12529170. As to conditions: read-out: binding affinities; cited from earlier work.
A further test concerns the target OfurPBP3 mutant M3: I52N (Ostrinia furnacalis, UniProt E7CCA1, I74N). As to the kind of experiment: Competitive binding assay, OfurPBP3 mutant M3 I52N. The method, then: (§1) The 1-NPN probe was excited at 337 nm, and emission spectra were recorded between 380 and 450 nm on a Shimadzu fluorescence spectrophotometer (Shimadzu, Japan). Each trial was run in triplicate, and Scatchard plots of the ratio of bound to unbound ligand were created using Microsoft Excel 2010. Competitive binding assays were performed with each of the OfurPBPs using 1-NPN as the probe. Assay reactions were comprised of 2 µM of each OfurPBP diluted individually in 2.0 ml 20 mM Tris–HCl, pH 7.4, which were then titrated with 1.0 mM increments sex pheromone diluted in methanol to a final concentrations of 1–6 µM. The synthetic standards that correspond to the sex pheromones of O. furnacalis, O. nubilalis and other lepidopteran species were purchased from Sigma-Aldrich (Shanghai, China; Additional file 2: S2). Excitation and emission spectra were recorded from triplicate assays as described above. The binding affinity of each purified OfurPBP to the different sex pheromones was measured by calculation of binding constants via competitive fluorescence-binding assay. In brief, relative fluorescent intensities were analyzed by GraphPad Prism 5 software (GraphPad Software Inc, La Jolla, CA) and calculation was done using the equation: Ki = [IC50]/(1 + [1-NPN]/K1-NPN), where [1-NPN] is the free concentration of 1-NPN and K1-NPN is the dissociation constant of the complex protein/1-NPN [19, 20]. Sex pheromone binding affinity with different PBPs was analyzed using One-way ANOVA in SAS 8.0 (SAS Institute Inc., Cary, NC, USA).
(§2) Four amino acids of OfurPBP3 with some of the most negative estimated E total values were mutated using Quick-change lightning site-directed mutagenesis kit (Stratagene, La Jolla, CA, USA); Ile to Asn at position 113 ([…]), m2 Phe to Ser at position 12 (F12S), m3 Ile to Asn at position 52 (I52N), and m4 […] to Arg at position 94 (I94R). The sequence of each primers used to alter the aforementioned sites by nucleotide mismatch are shown in Additional file 3: S3. After initial denaturation at 94 °C for 5 min, the subsequent PCR followed with 30 cycles of 94 °C for 30 s, 56 °C for 30 s, and final extension at 72 °C for 1 min. Changes within site-directed mutant fragments were verified by cloning into the pGEM-T Easy vector (Promega) by Sanger sequencing. All mutated OfurPBPs proteins were expressed and used within in vitro binding assays as described above.

The next test has as its target recombinant OfurPBP1 (Ostrinia furnacalis, UniProt E7CC99). As to the kind of experiment: Competitive fluorescence binding assay with 1-NPN probe, OfurPBP1. As to conditions: mean ± SE, dash = undetectable interaction; for Ki: pH 7.4, Ki = [IC50]/(1 + [1-NPN]/K1-NPN); for IC50: pH 7.4, displacement of 1-NPN. The procedure: as §1
Another test has as its target recombinant OfurPBP5 (Ostrinia furnacalis, UniProt E7CCA3). As to the kind of experiment: Competitive fluorescence binding assay with 1-NPN probe, OfurPBP5. The note with it: pH 7.4; for IC50 / Ki: OfurPBP5, mean ± SE, dash = undetectable interaction; for IC50: displacement of 1-NPN. The method, then: as §1
Another test concerns the target recombinant OfurPBP2 (Ostrinia furnacalis, UniProt E7CCA0). As to the kind of experiment: Competitive fluorescence binding assay with 1-NPN probe, OfurPBP2. The note with it: dash = undetectable interaction; for IC50: pH 7.4, displacement of 1-NPN, mean ± SE; for Ki: pH 7.4, mean ± SE. The method, then:
as §1

A further test has as its target OfurPBP3 mutant M4: I94R (Ostrinia furnacalis, UniProt E7CCA1, L116R). Put plainly: Competitive binding assay, OfurPBP3 mutant M4 I94R. The method, then:
as §1, §2

Test [1] deals with OfurPBP3 mutant M1: I113N (Ostrinia furnacalis, UniProt E7CCA1, I135N). As to the kind of experiment: Competitive binding assay, OfurPBP3 mutant M1 I113N. As to conditions: for fold reduction in affinity compared to wild-type OfurPBP3: mutant I113N vs wildtype. The procedure:
as §1, §2

The target of the next test is recombinant OfurPBP4 (Ostrinia furnacalis, UniProt E7CCA2). As to the kind of experiment: Competitive fluorescence binding assay with 1-NPN probe, OfurPBP4. As to conditions: pH 7.4; for IC50 / Ki: OfurPBP4, mean ± SE, dash = undetectable interaction; for IC50: displacement of 1-NPN. The method, then: as §1
The target of another test is OfurPBP3 mutant M2: F12S (Ostrinia furnacalis, UniProt E7CCA1, F34S). As to the kind of experiment: Competitive binding assay, OfurPBP3 mutant M2 F12S. The procedure:
as §1, §2

Test [2] concerns OfurPBP1, OfurPBP2, OfurPBP3, OfurPBP4 and OfurPBP5. As to the kind of experiment: Competitive binding assay, statements on all five OfurPBPs together. Also on record: species or system Ostrinia furnacalis. The note with it: pH 7.4. The method, then: as §1
For another test, the target named is recombinant OfurPBP3 (Ostrinia furnacalis, UniProt E7CCA1). As to the kind of experiment: Competitive fluorescence binding assay with 1-NPN probe, OfurPBP3 wild type. As to conditions: pH 7.4; for IC50 / Ki: OfurPBP3 wild type, mean ± SE, dash = undetectable interaction; for IC50: displacement of 1-NPN. The method, then: as §1
Test [3] deals with OfurPBP3 mutants F12S, I52N, I94R, and I113N. As to the kind of experiment: Competitive binding assay, statements on all OfurPBP3 mutants together. Also on record: species or system Ostrinia furnacalis. The note with it: for binding to all mutated OfurPBPs (in words): pH 7.4; for fold reduction in OfurPBP3 affinity caused by Ser12, Asn52, Arg94, Asn113 variants: range over the four mutants vs wild type. The procedure: as §1, §2

Consider eight compounds from PMC5296967, “Binding affinity of five PBPs to Ostrinia sex pheromones” (BMC Molecular Biology, 2017).

Where “and” joins values, the source holds several entries; their conditions need not be identical. Equal values may be shown once. Entries after “also recorded” stand apart in the source; their conditions may differ.

recombinant OfurPBP1, sequence (E7CC99 entry or part of it): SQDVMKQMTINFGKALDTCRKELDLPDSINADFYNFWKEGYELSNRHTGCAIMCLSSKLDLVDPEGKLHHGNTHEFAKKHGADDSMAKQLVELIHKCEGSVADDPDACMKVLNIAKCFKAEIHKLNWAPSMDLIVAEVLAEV
OfurPBP3 mutant M4: I94R, sequence (E7CCA1 entry or part of it L116R): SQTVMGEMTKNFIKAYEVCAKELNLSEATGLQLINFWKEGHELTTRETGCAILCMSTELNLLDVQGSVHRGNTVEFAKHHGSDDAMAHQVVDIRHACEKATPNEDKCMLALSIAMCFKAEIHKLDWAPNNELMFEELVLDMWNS
OfurPBP3 mutant M3: I52N, sequence (E7CCA1 entry or part of it I74N): as the sequence (E7CCA1 entry or part of it L116R) above, with I52N, R94L counted along it
OfurPBP3 mutant M2: F12S, sequence (E7CCA1 entry or part of it F34S): as the sequence (E7CCA1 entry or part of it L116R) above, with F12S, R94L counted along it
OfurPBP3 mutant M1: I113N, sequence (E7CCA1 entry or part of it I135N): as the sequence (E7CCA1 entry or part of it L116R) above, with R94L, I113N counted along it
recombinant OfurPBP5, sequence (E7CCA3 entry or part of it): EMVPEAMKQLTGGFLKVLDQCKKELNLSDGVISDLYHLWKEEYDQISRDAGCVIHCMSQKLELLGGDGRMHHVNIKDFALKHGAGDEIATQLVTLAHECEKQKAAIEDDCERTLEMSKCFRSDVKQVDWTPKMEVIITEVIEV
recombinant OfurPBP2, sequence (E7CCA0 entry or part of it): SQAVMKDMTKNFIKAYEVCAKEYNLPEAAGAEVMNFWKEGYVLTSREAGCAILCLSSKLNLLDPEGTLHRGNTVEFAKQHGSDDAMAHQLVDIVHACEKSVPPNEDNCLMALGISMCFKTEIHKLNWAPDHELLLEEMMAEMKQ
recombinant OfurPBP4, sequence (E7CCA2 entry or part of it): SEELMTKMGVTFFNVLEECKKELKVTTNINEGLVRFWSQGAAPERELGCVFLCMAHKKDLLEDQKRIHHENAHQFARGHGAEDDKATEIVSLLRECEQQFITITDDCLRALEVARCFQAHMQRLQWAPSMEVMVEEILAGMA
recombinant OfurPBP3, sequence (E7CCA1 entry or part of it): as the sequence (E7CCA1 entry or part of it L116R) above, with R94L counted along it

For `CC(=O)C(C)O` (centres unmarked) [3-hydroxy-butan-2-on], the Kd on PBPLma is 3.8 µM.

As for `CC/C=C/CCCCCCCCCCOC(C)=O` [E11-14:OAc, (E)-11-Tetradecenyl acetate], the IC50 is > 6 µM at OfurPBP3 mutant M3: I52N; 5.3 ± 0.02 µM at recombinant OfurPBP1; 1.9 ± 0.07 µM at recombinant OfurPBP5; 3.28 ± 0.01 µM on recombinant OfurPBP2; > 6 µM on OfurPBP3 mutant M4: I94R; > 6 µM in [1]. Moreover, the figures for the concentration for half-maximal inhibition (IC50) on recombinant OfurPBP4, on OfurPBP3 mutant M2: F12S and on recombinant OfurPBP3 were 2.31 ± 0.57 µM, > 6 µM and 2.64 ± 0.15 µM, respectively. Besides, the Ki on recombinant OfurPBP1 was 4.61 ± 0.02 µM; at recombinant OfurPBP5, 1.14 ± 0.04 µM; on recombinant OfurPBP2 it was 2.77 ± 0.01 µM; on recombinant OfurPBP4 it was 2.13 ± 0.53 µM; on recombinant OfurPBP3, 1.97 ± 0.11 µM. The “binding to all five OfurPBPs (in words)” value in test [2] was “relatively high affinities”.

For the compound `CC/C=C/CCCCCCCCCCO` [E11-14:OH, (E)-11-Tetradecenol], the IC50 (on OfurPBP3 mutant M3: I52N; on recombinant OfurPBP1; at recombinant OfurPBP5; on recombinant OfurPBP2; on OfurPBP3 mutant M4: I94R; in test [1]) was > 6 µM throughout. For the same compound, the IC50 on recombinant OfurPBP4, at OfurPBP3 mutant M2: F12S and on recombinant OfurPBP3 was > 6 µM each time. In addition, the “binding to all mutated OfurPBPs (in words)” value in test [3] was “weak binding affinity”. Also, the Ki on recombinant OfurPBP1, at recombinant OfurPBP5, at recombinant OfurPBP4 and on recombinant OfurPBP3 was > 6 µM each time. Besides, the “binding to all five OfurPBPs (in words)” value in test [2] was “weak or lack of detectable binding”. Moreover, the “binding to wildtype OfurPBP3 (in words)” value at recombinant OfurPBP3 is “failed to demonstrate this function”.

As to `C/C=C/CCCCCCCCCCCOC(C)=O` [E12-14:OAc, (E)-12-Tetradecenyl acetate], the IC50 was > 6 µM on OfurPBP3 mutant M3: I52N; 5.77 ± 0.16 µM on recombinant OfurPBP1; > 6 µM on recombinant OfurPBP5; 4.88 ± 0.1 µM on recombinant OfurPBP2; > 6 µM on OfurPBP3 mutant M4: I94R; > 6 µM in test [1]. The IC50 on recombinant OfurPBP4 was > 6 µM; on OfurPBP3 mutant M2: F12S, > 6 µM; on recombinant OfurPBP3 it was 3.81 ± 0.02 µM. For the same compound, the “fold reduction in OfurPBP3 affinity caused by Ser12, Asn52, Arg94, Asn113 variants” value in test [3] is 1.7- to 4.6 fold. Further, the Ki at recombinant OfurPBP1 was 5.01 ± 0.14 µM; at recombinant OfurPBP2, 4.12 ± 0.08 µM; at recombinant OfurPBP4, > 6 µM; on recombinant OfurPBP3 it was 2.85 µM and 2.84 µM. The “binding to OfurPBP4 (in words)” value at recombinant OfurPBP4 was “incapable of binding; also recorded: no detectable binding”.

In the case of `CCCC/C=C\CCCCCCCCO` [Z9-14:OH, (Z)-9-Tetradecenol], the IC50 (on OfurPBP3 mutant M3: I52N; on recombinant OfurPBP1; at recombinant OfurPBP5; on recombinant OfurPBP2; on OfurPBP3 mutant M4: I94R; in test [1]) was > 6 µM each time. For the same compound, the IC50 on recombinant OfurPBP4, on OfurPBP3 mutant M2: F12S and on recombinant OfurPBP3 was > 6 µM each time. In addition, the “binding to all mutated OfurPBPs (in words)” value in test [3] is given as “weak binding affinity”. Besides, the Ki on recombinant OfurPBP1, on recombinant OfurPBP5, on recombinant OfurPBP2, at recombinant OfurPBP4 and on recombinant OfurPBP3 was > 6 µM throughout. Also, the “binding to I113N (in words)” value in [1] (pH 7.4) is given as “ability to bind”. Besides, the “binding to all five OfurPBPs (in words)” value in [2] was “weak or lack of detectable binding”. Further, on recombinant OfurPBP3, the “binding to wildtype OfurPBP3 (in words)” value is “failed to demonstrate this function”.

With `CC/C=C\CCCCCCCCCCOC(C)=O` [Z11-14:OAc, (Z)-11-Tetradecenyl acetate], the IC50 at OfurPBP3 mutant M3: I52N is > 6 µM; on recombinant OfurPBP1 it was 4.69 ± 0.14 µM; on recombinant OfurPBP5, 3.64 ± 0.28 µM; at recombinant OfurPBP2, 3.49 ± 0.06 µM; on OfurPBP3 mutant M4: I94R, > 6 µM; in test [1], > 6 µM. Besides, the results for the IC50 at recombinant OfurPBP4, at OfurPBP3 mutant M2: F12S and on recombinant OfurPBP3 were 1.18 ± 0.05 µM, > 6 µM and 3.27 ± 0.24 µM, respectively. The Ki stood at 4.08 ± 0.12 µM at recombinant OfurPBP1; 2.18 ± 0.17 µM at recombinant OfurPBP5; 2.95 ± 0.05 µM at recombinant OfurPBP2; 1.09 ± 0.05 µM on recombinant OfurPBP4; 2.44 ± 0.18 µM at recombinant OfurPBP3. Besides, in test [1], the “fold reduction in affinity compared to wild-type OfurPBP3” value was ~8.25 fold. In addition, the “binding to all five OfurPBPs (in words)” value in test [2] is recorded as “relatively high affinities”.

For `C/C=C\CCCCCCCCCCCOC(C)=O` [Z12-14:OAc, (Z)-12-Tetradecenyl acetate], the IC50 is > 6 µM at OfurPBP3 mutant M3: I52N; 4.88 ± 0.94 µM at recombinant OfurPBP1; > 6 µM at recombinant OfurPBP5; 4.96 ± 0.23 µM at recombinant OfurPBP2; > 6 µM at OfurPBP3 mutant M4: I94R; > 6 µM in test [1]. Moreover, the results for the IC50 at recombinant OfurPBP4, on OfurPBP3 mutant M2: F12S and at recombinant OfurPBP3 were > 6 µM, > 6 µM and 3.83 ± 0.06 µM, respectively. The “fold reduction in OfurPBP3 affinity caused by Ser12, Asn52, Arg94, Asn113 variants” value in test [3] is 1.7- to 4.6 fold. Further, the Ki at recombinant OfurPBP1 is 4.24 ± 0.82 µM; on recombinant OfurPBP2, 4.19 ± 0.09 µM; on recombinant OfurPBP3, 2.86 ± 0.04 µM. In addition, the “binding to OfurPBP5 (in words)” value at recombinant OfurPBP5 is reported as “weakly”. The “fold reduction in affinity compared to wild-type OfurPBP3” value (in [1]; on OfurPBP3 mutant M2: F12S (mutant F12S vs wildtype)) was ~ 2 fold in each case.

As for `CC(O)C(C)O` (centres unmarked) [butane-2,3-diol], the Kd at PBPLma is 2.5 µM.
